Key:
[1] = tested on: CHO; test: MTT assay, normal cell line; format: cell-based, Chinese hamster; settings: Cricetulus griseus, 72 h incubation, mean ± SD of three experiments
Experimental: (§1) The 3-(4,5-dimethylthiazol-2-yl)-2,5-diphenyltetrazolium bromide (MTT) assay was used to determine the sensitivity of the different CRC cells to the novel silybin derivatives (Hussein et al., [2017]; Manivannan et al., [2017]). The cells were seeded at a density of 4,000–5,000 cells/well in 96 well plates and incubated with serial dilutions of the compounds (0, 0.1, 0.3, 1, 3, 10, 30, and 100 μM). The MTT dye (4 mg/ml) was added after 72 h of incubation and incubated with the cells for an additional 4 h at 37°C. Following incubation, the media was discarded and the formazan crystals were dissolved by adding 100 μL of DMSO to each well. A DTX 880 multimode detector (Beckman Coulter Life, Indianapolis IN, USA) was used to determine the absorbance readings at a wavelength of 570 nm. The IC50 values were determined based on 3 separate experiments, with each experiment done in triplicate. The selectivity of the compounds was determined by comparing their cytotoxicity for CRC to normal epithelial cell lines (CHO, and CRL1459).

[2] = tested on: HCT116 cells; test: CellTiter-Glo luminescent assay (ATP content); format: cell-based; settings: Homo sapiens, HCT-116, data not shown, read-out: IC50, ATP depletion
Experimental: Subsequently, we conducted experiments to determine if compound 15k produced a time-dependent effect on cell death. […] The HCT116 cells had intense fluorescence over time compared to the cells incubated with vehicle, with a significant difference in the number of dead cells after 24 h of incubation with 2 μM of 15k. […] The cytotoxicity of 15k and 15j in HCT116 cells were further determined using a more homogeneous CellTiter-Glo® luminescent cell based assay that measures the ATP content in the metabolically active cells.

[3] = tested on: caspases 3 and 7; test: IncuCyte caspase-3/7 real time apoptosis; format: cell-based, human
Experimental: For real time quantification of apoptosis induction, the fluorescent Caspase 3/7 and Annexin V red reagents, with an excitation maximum of 500 and 593 nm and an emission maximum of 530 and 614 nm, respectively, were used. The HCT116 cells were seeded at a density of 1,000 cell/well and allowed to grow overnight. The next day, compound 15k at 0, 2, 4, and 8μM was prepared and added, directly followed by the caspase 3/7 reagent at final concentration of 5μM or annexin V red reagent in final dilution of 1: 200. The cells were then incubated in IncuCyte Zoom live cell imaging and pictures were taken every 2 h for up to 50 h and analyzed using the integrated software. The IncuCyte® Caspase-3/7 apoptosis assay reagent couples the activated caspase-3/7 recognition motif (DEVD) to NucView™ 488, a DNA intercalating dye to enable quantification of apoptosis over time. Caspase-3/7 assay reagent is non-perturbing to cell growth and morphology. When added to cell culture medium, this inert, non-fluorescent substrate crosses the cell membrane, where it is cleaved by activated caspase-3/7, resulting in the release of the DNA dye and green fluorescent staining of nuclear DNA.

[4] = tested on: Bax (p21 and p18); test: Western blot in HCT116 cells; format: cell-based, human; settings: 4 μM, overnight, p < 0.001
Experimental: (§2) HCT116 cells were lysed to obtain cytoplasmic and nuclear protein fractions, according to the protocol used in previous publications (Alhadidi and Shah, [2017]). Briefly, the cells were seeded in and incubated with 15k for overnight at 4μM. The cells were washed using ice-cold PBS and scraped using a cell scraper and collected in 15ml tubes. The cells were centrifuged and the PBS was discarded and replaced with 400 μl of buffer A (10 mM HEPES, pH 7.9, 0.1 mM EDTA, 0.1 mM EGTA, 10 mM KCl, 1 mM dithiothreitol, and 0.5 mM phenylmethylsulfonyl fluoride) in each tube. The cells were allowed to swell under in the buffer for 15 min on ice. Subsequently, 0.1% Nonidet P-40 was added to each suspension for 1 min to disturb the plasma membrane. The nuclei were precipitated by centrifugation at 13,000 rpm for 1 min at 4°C. The cytoplasmic proteins were collected in the supernatant and stored at −80°C. Two hundred μl of Buffer B (20 mM HEPES, pH 7.9, 1 mM EDTA, 1 mM EGTA, 400 mM NaCl, 1 mM dithiothreitol, and 1 mM phenylmethylsulfonyl fluoride) was added to the pellets and left for 30 min on ice with periodic mixing. The samples were centrifuged at 13,000 rpm for 15 min at 4°C to obtain the nuclear fraction (supernatant). The bicinchoninic acid (BCA) quantification assay was used to determine the concentration of protein in the cell extracts. The Western blot was done as previously described (Tiwari et al., [2013]). Rabbit α-tubulin, 1:4,000 dilution, rabbit Bax (1:1,000), rabbit BAK (1:1,000), rabbit β-Catenin (1:4,000), rabbit DVL3 (1:4,000), mouse β-actin (1:5,000), E-cadherin (1:4,000), and N-cadherin (1:4,000), antibodies were used. Membranes were then washed and incubated for 1 h with horseradish peroxidase-labeled (HRP) anti-rabbit and anti-mouse secondary antibodies (1:5,000 dilutions). ChemiDoc Imaging Systems from Bio-Rad, (Hercules, California USA) was used to detect the blots. Finally, proteins were quantified using the image J software. Data were calculated as ratios to β-actin.

[5] = tested on: N-cadherin; test: Western blot in HCT116 cells; format: cell-based, human; settings: 4 μM, p < 0.01 vs control
Experimental: as §2

[6] = tested on: HCT116 Bak knockout (Bak–/–) cells; test: MTT assay, knockout cells; format: cell-based; settings: Homo sapiens, HCT-116, not significantly different from WT
Experimental: (§3) Colorectal cancer cell lines, including HCT116, LOVO, and S1, with varying drug sensitivity and invasiveness, were grown as adherent monolayer in culturing flasks. Normal epithelial cells lines (Chinese hamster ovarian: CHO, normal epithelial colon: CRL1459) were also grown. Both cancerous and normal cell lines were kindly obtained from the late Dr. Gary Kruh (University of Chicago, Illinois). In addition, CRC HCT116 Bax knockout (Bax–/–) cells were kindly provided by Dr. Bert Vogelstein (Johns Hopkins, Baltimore) (Zhang et al., [2000]), Bak knockout (Bak–/–) and Bax-Bak double knockout (Bax–/– and Bak–/–) cells were kindly provided by Richard Youle (NIH, […], MD) (Wang and Youle, [2012]). DMEM, with 4.5 g of glucose, was supplemented with 10% fetal bovine serum (FBS) and 1% penicillin/streptomycin and used for all cell lines. The cells were cultured in a humidified incubator containing 5% CO2 at 37°C. All of cells were checked and confirmed to be free of fungi and mycoplasma. Cells were obtained from frozen stocks and cell passaging (up to P4) was performed at 80% cell confluency by PBS and trypsin + 2.2 mM EDTA.
as §1, with “Following incubation, the media was discarded and the formazan crystals were dissolved by adding 100 μL of DMSO to each well.” left out

[7] = tested on: HCT116 Bax knockout (Bax–/–) cells; test: MTT assay, knockout cells; format: cell-based; settings: Homo sapiens, HCT-116, p < 0.05 vs WT
Experimental: as §3
as §1, with “Following incubation, the media was discarded and the formazan crystals were dissolved by adding 100 μL of DMSO to each well.” left out

[8] = tested on: HCT116 Bax-Bak double knockout (DKO) cells; test: MTT assay, knockout cells; format: cell-based; settings: Homo sapiens, HCT-116, p < 0.05 vs WT
Experimental: as §3
as §1, with “Following incubation, the media was discarded and the formazan crystals were dissolved by adding 100 μL of DMSO to each well.” left out

- IC50 [2]: 760 nM
- IC50 [6]: 3.6 µM
- IC50 [7]: 10.9 µM
- IC50 [8]: 13.6 µM
Compound: O=C(/C=C/c1cccc(OCc2ccccc2)c1)c1ccc(O)cc1 [Compound 15k]
- IC50 [1]: 8.1 ± 1.2 µM
- incubation time to induce apoptosis (caspase 3/7) ([3]; 2 μM): ≈ 24 h
- incubation time to induce apoptosis (caspase 3/7) ([3]; 4 and 8 μM): ≈ 10 h
- cleavage of Bax p21 to p18 [4]: induced the cleavage of the protein Bax (p 21)
- level of N-cadherin [5]: significantly downregulated
